According to US20130142819A1, “LEISHMANICIDAL FORMULATION AND ITS USE” (priority 2010, published 2013):

Legend:
Test in all cases: Leishmanicidal activity, MTT viability assay, promastigotes
Assay type in all cases: cell-based
Details in all cases: 50 μg/mL; average ± standard deviation
[1] = tested on: stationary phase promastigotes of L. amazonensis
Procedure: (§1) In a cell culture plate of 96 wells (Nunc, Nunclon®), 4×10^5 promastigote and amastigote-like forms of species Leishmania amazonensis, L. major and L. chagasi were incubated with 25 to 200 μg/mL of the aqueous extract of the fungus in RPMI-PR medium for a final volume of 100 μL, for 24 h at 25° C. Then it was added 50 uL of MTT reagent (Thiazoly Blue Tetrazolium Bromide 98%; in stock concentration of 5 mg/mL) and the plate was incubated for 4 hours at 25° C. The cells were analyzed on a microscope to verify the formation of formazan crystals. Shortly after it was added 60 μL of a SDS 10%/HCL 0.1 M solution to solubilize formazan crystals and the plate was incubated for 18 h. The absorbance readings were then performed using a spectrophotometer at a wavelength of 570 nanometers (nm) (see FIGS. 1 and 2; Table 1 and 2).
(§2) Through the absorbance readings collected in experiments, Tables 1 and 2 were generated to represent the percentage of leishmanicidal activity of aqueous extract against the three Leishmania species tested in two manners. The calculation of the percentage of death of the parasites was based in the formula below, using the absorbance readings: […]
(§3) The experiment was conducted by the cellular viability protocol by impregnating the MTT reagent and the concentration of 50 μg/mL of the aqueous extract of the fungus and the purified fractions were used. […]

[2] = tested on: stationary phase promastigotes of L. chagasi
Procedure: as §1, §2, §3

[3] = tested on: stationary phase promastigotes of L. major
Procedure: as §1, §2, §3

## C[C@@H]1[C@H](O)[C@@H](C)/C=C/C=C/C=C/C=C/C=C/C=C/C=C/[C@H](O[C@@H]2O[C@H](C)[C@@H](O)[C@H](N)[C@@H]2O)C[C@@H]2O[C@](O)(C[C@@H](O)C[C@@H](O)[C@H](O)CC[C@@H](O)C[C@@H](O)CC(=O)O[C@H]1C)C[C@H](O)[C@H]2C(=O)O [Amphotericin B, amphotericin B]
[1]
  Average percentage of death of stationary phase promastigote forms, L. amazonensis: 40.06 ± 1.17%
[2]
  Average percentage of death of stationary phase promastigote forms, L. chagasi: 35.12 ± 2.61%
[3]
  Average percentage of death of stationary phase promastigote forms, L. major: 42.51 ± 2.00%
